pIC50: −log10 of the molar value. Non-standard residues stand in square brackets, D forms with d. Residues, ends and D or L forms follow the SMILES beside them. *: point of attachment. 1Nal = N[C@@H](Cc1cccc2ccccc12)C(=O)O; d(aIle) = CC[C@H](C)[C@@H](N)C(=O)O; Hyp = O=C(O)[C@@H]1C[C@@H](O)CN1; d2Thi = N[C@H](Cc1cccs1)C(=O)O; Pip = O=C(O)[C@@H]1CCCCN1; Aze = O=C(O)[C@@H]1CCN1; Bn = c1ccc(C*)cc1
How the values were obtained:
[1] = target: T1, endothelin receptor A (ETA) (Sus scrofa, UniProt Q29010); assay: Assay of Affinity for Receptor (1): Binding Activity on ETA Receptor; set-up: key to Binding Activity on ET Receptor (R. act.) ETA: relative binding activity; reference cyclic pentapeptide = 1.0; conditions: porcine heart membrane fraction; for Binding Activity on ET Receptor (R. act.) ETA: specific activity, binding activity of cyclo[-D-Glu-Ala-D-aIle-Leu-D-Trp-] taken as 1.0, 125I-labeled endothelin-1, 25° C., 1 hour
T1 construct: A membrane fraction prepared from the porcine heart; from tissue; host or cells: porcine heart membrane fraction
T1 sequence (Q29010 21-427): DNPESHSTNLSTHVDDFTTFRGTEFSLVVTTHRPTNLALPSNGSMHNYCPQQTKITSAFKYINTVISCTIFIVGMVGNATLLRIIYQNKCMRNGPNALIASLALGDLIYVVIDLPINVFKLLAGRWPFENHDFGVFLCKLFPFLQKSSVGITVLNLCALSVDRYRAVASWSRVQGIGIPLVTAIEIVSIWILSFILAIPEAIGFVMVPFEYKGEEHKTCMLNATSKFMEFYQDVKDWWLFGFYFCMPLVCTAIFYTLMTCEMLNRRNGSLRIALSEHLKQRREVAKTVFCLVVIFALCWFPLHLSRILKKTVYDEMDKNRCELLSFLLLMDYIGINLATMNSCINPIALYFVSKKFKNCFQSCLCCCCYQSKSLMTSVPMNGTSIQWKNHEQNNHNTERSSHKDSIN
Procedure: Assay of Affinity for Receptor (1) . . . Binding Activity on ETA Receptor
A membrane fraction prepared from the porcine heart was diluted to 0.15 mg/ml by using a buffer solution for assay, and 100 μl of the resulting suspension of the membrane fraction was poured into each assay tube to use for assay. To this suspension of the membrane fraction was added 2 μl of 5 nM ^125 I-labeled endothelin-1 solution. Further, 3 μl of a test peptide solution was added thereto, followed by incubation at a temperature of 25° C. for 1 hour. Then, the resulting suspension was diluted with 900 μl of the buffer solution for assay cooled with ice, and thereafter separated into a supernatant and a precipitate by centrifugation at 12,000×g for 10 minutes. Cell membranes and an endothelin receptor A (ETA) embedded therein were contained in the precipitate, and radioactive iodine-labeled endothelin combined with the receptor was also recovered in the precipitate. Accordingly, the amount of radioactive iodine-labeled endothelin combined with the endothelin receptor A (ETA) was determined by measuring the amount of radioactive iodine contained in the precipitate with a gamma-ray counter. The cyclic pentapeptide described in Japanese Patent Application No. 2-413828/1990, cyclo[-D-Glu-Ala-D-aIle-Leu-D-Trp-], was used as a control compound. The numerical value of ETA shown in Table 1 is the value of specific activity, taking the binding activity of this cyclic pentapeptide on the receptor A as 1.0. The binding activity (IC50) of this cyclic pentapeptide on the ETA receptor is 2×10^-6 M.

[2] = target: T2, endothelin receptor B (ETB) (Bos taurus, UniProt P28088); assay: Assay of Affinity for Receptor (2): Binding Activity on ETB Receptor *1; set-up: key: relative specific activity, Example 8 compound = 100; conditions: specific activity, binding activity of the compound of Example 8 taken as 100; bovine brain membrane fraction, 125I labeled endothelin-1, 25° C., 1 hour
T2 construct: A membrane fraction prepared from the bovine brain; from tissue; host or cells: bovine brain membrane fraction
T2 sequence (P28088 27-441): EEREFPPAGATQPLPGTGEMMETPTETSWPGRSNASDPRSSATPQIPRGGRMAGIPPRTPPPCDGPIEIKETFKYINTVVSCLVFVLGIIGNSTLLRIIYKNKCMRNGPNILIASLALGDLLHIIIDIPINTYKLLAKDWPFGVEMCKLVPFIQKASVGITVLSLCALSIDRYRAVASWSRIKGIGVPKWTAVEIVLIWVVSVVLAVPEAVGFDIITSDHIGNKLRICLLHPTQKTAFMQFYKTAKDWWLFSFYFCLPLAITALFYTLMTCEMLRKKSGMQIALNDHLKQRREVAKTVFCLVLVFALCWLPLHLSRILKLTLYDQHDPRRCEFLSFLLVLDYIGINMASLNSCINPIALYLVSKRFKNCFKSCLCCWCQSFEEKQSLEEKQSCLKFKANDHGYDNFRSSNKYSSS
Procedure: Assay of Affinity for Receptor (2) . . . Binding Activity on ETB Receptor *1
A membrane fraction prepared from the bovine brain was diluted to 0.15 mg/ml by using a buffer solution for assay, and 100 μl of the resulting suspension of the membrane fraction was poured into each assay tube to use for assay. To this suspension of the membrane fraction was added 2 μl of 5 nM ^125 I labeled endothelin-1 solution. Further, 3 μl of a test peptide solution was added thereto, followed by incubation at a temperature of 25° C. for 1 hour. Then, the resulting suspension was diluted with 900 μl of the buffer solution for assay cooled with ice, and thereafter separated into a supernatant and a precipitate by centrifugation at 12,000×g for 10 minutes. Cell membranes and an endothelin receptor B (ETB) embedded therein were contained in the precipitate, and radioactive iodine-labeled endothelin bound to the receptor was also recovered in the precipitate. Accordingly, the amount of radioactive iodine-labeled endothelin bound to the endothelin receptor B (ETB) was determined by measuring the amount of radioactive iodine contained in the precipitate with a gamma-ray counter. The numerical value of ETB shown in Table 1 is the value of specific activity, taking the binding activity of the compound of Example 8 on the receptor B as 100.

[3] = system: ETB receptor (guinea pig kidney crude receptor membrane fraction); assay: ETB Radio Receptor Assay *2; format: binding; conditions: relative activity (Example 8 given as 100), 125I-endothelin-1, 37° C., 90 minutes
Procedure: ETB Radio Receptor Assay *2
In the endothelin radio receptor assay, guinea pigs' kidneys were used. Guinea pigs (Std Hartrey, male 250 g, Japan SLC Ltd.) were made to have a cerebral concussion and sacrificed by bleeding from carotid arteries to pick up the kidneys and removed fat therefrom to prepare the kidneys. The obtained kidneys were sliced and homogenized by politron homogenizer in 20 ml of 50 mM Tris-HCl buffer [pH 7.4; 20 mM NaHCO3, 0.1 mM PMSF (Phenylmethylsulfonyl Fluoride), 1 mM EDTA (Ethylenediaminetetraacetic acid)] per one kidney. The homogenized kidney was applied to a centrifugation at 1,000×g for 15 minutes and the supernatant was further applied to a centrifugation for 20 minutes at 30,000×g. The resulting precipitate was twice washed with 50 mM Tris-HCl buffer (pH 7.4) containing 0.1 mM PMSF, 1 mM EDTA. The resultant was stored at -80 ° C. as a crude receptor membrane fraction and was used as the suspension in the following buffer when necessary.
740 Bq of ^125 I-endothelin-1 (81.4 TBq/mmol, Du Pont, USA) as a radio ligand, the crude membrane fraction (2.1 μg protein) and samples were added to the following buffer. The reaction was performed at 37° C., for 90 minutes in 0.2 ml of the buffer [50 mM Tris-HCl buffer (pH 7.4) containing 0.1 mM PMSF, 1 mM EDTA, 0.2% bovine serum albumin].
The reaction was stopped by fast filtration on a glass filter (GF/B, Wattman, USA) by Cell Harvestor (290 PHD, Cambridge-Technology, Great Britain), and the filter was three times washed with 50 mM Tris-HCl buffer (pH 7.4). Radio activity remained on the filter was assayed by a gamma counter.

Row | Compound | Binding Activity on ET Receptor (R. act.) ETA [1] | Binding Activity on ET Receptor (R. act.) ET8 *1 [2] | Binding Activity on ET Receptor (R. act.) ET8 *2 [3] | pIC50 ([1]; 125I-labeled endothelin-1)
1 | CC(C)C[C@@H]1NC(=O)[C@@H](CC(C)C)NC(=O)[C@H](CC(=O)O)NC(=O)[C@H](Cc2cccc3ccccc23)NC(=O)[C@@H](CC(=O)O)NC(=O)[C@@H](Cc2c[nH]c3ccccc23)NC1=O [Example 23, Cyclo[--D--Asp--Nal(1)--Asp--D--Leu--Leu--D--Trp--]] (cyclo([1Nal]D[dL]L[dW][dD])) | 8.3 | 11 | 7.7 | 
2 | CC(C)C[C@@H]1NC(=O)[C@H](Cc2c[nH]c3ccccc23)NC(=O)[C@@H](CC(=O)O)NC(=O)[C@@H](Cc2c[nH]c3ccccc23)NC(=O)[C@H](CC(C)C)NC(=O)[C@@H](CC(C)C)NC1=O [Example 35, Cyclo[--D--Asp--Trp--Leu--D--Leu--Leu--D--Trp--]] (cyclo(L[dL]L[dW][dD]W)) | 9.1 | 52 | 24 | 
3 | CC(C)C[C@@H]1NC(=O)[C@@H](CC(C)C)NC(=O)[C@H](CC(=O)O)NC(=O)[C@H](CC(=O)O)NC(=O)[C@@H](CC(=O)O)NC(=O)[C@@H](Cc2c[nH]c3ccccc23)NC1=O [Example 16, Cyclo[--D--Asp--Asp--Asp--D--Leu--Leu--D--Trp--]] (cyclo(DD[dL]L[dW][dD])) | 10 | 14 | 34 | 
4 | CC(C)C[C@@H]1NC(=O)[C@@H](CC(C)C)NC(=O)[C@H](CC(=O)O)NC(=O)[C@@H]2CCCCN2C(=O)[C@@H](CC(=O)O)NC(=O)[C@@H](Cc2c[nH]c3ccccc23)NC1=O [Example 26, Cyclo[--D--Asp--Pip--Asp--D--Leu--Leu--D--Trp--]] (cyclo(D[dL]L[dW][dD][Pip])) | 25 | 38 | 73 | 
5 | CC[C@H](C)[C@H]1NC(=O)[C@H](C)NC(=O)[C@@H](CCC(=O)O)NC(=O)[C@@H](Cc2c[nH]c3ccccc23)NC(=O)[C@H](CC(C)C)NC1=O [cyclo[-D-Glu-Ala-D-aIle-Leu-D-Trp-], reference compound] (cyclo(A[d(aIle)]L[dW][dE])) | 1.0 | less than 1 |  | 5.70
6 | CC(C)C[C@@H]1NC(=O)[C@@H](CC(C)C)NC(=O)[C@H](CC(=O)O)NC(=O)[C@@H]2C[C@@H](O)CN2C(=O)[C@@H](CC(=O)O)NC(=O)[C@@H](Cc2c[nH]c3ccccc23)NC1=O [Example 14, cyclo[-D-Asp-Hyp-Asp-D-Leu-Leu-D-Trp-]] (cyclo(D[dL]L[dW][dD][Hyp])) | 70 | 160 | 120 | 
7 | CC(C)C[C@@H]1NC(=O)[C@@H](Cc2cccs2)NC(=O)[C@H](CC(=O)O)NC(=O)[C@H](Cc2c[nH]c3ccccc23)NC(=O)[C@@H](CC(=O)O)NC(=O)[C@@H](Cc2c[nH]c3ccccc23)NC1=O [Example 50, Cyclo[--D--Asp--Trp--Asp--D--Thi--Leu--D--Trp--]] (cyclo(D[d2Thi]L[dW][dD]W)) | 4 | 350 | 57 | 
8 | CC(C)C[C@@H]1NC(=O)[C@@H](CC(C)C)NC(=O)[C@H](CCC(=O)O)NC(=O)[C@H](Cc2c[nH]c3ccccc23)NC(=O)[C@@H](CC(=O)O)NC(=O)[C@@H](Cc2c[nH]c3ccccc23)NC1=O [Example 34, Cyclo[--D--Asp--Trp--Glu--D--Leu--Leu--D--Trp--]] (cyclo(E[dL]L[dW][dD]W)) | 20 | 77 | 44 | 
9 | CC(C)C[C@@H]1NC(=O)[C@@H](CC(C)C)NC(=O)[C@H](COCc2ccccc2)NC(=O)[C@H](Cc2c[nH]c3ccccc23)NC(=O)[C@@H](CC(=O)O)NC(=O)[C@@H](Cc2c[nH]c3ccccc23)NC1=O [Example 38, Cyclo[--D--Asp--Trp--Ser(Bzl)--D--Leu--Leu--D--Trp--]] (cyclo(L[dW][dD]WS(Bn)[dL])) | 13 | 66 | 170 | 
10 | CC(C)C[C@@H]1NC(=O)[C@@H](CC(C)C)NC(=O)[C@H](CC(=O)O)NC(=O)[C@H](Cc2c[nH]c3ccccc23)NC(=O)[C@@H](CC(=O)O)NC(=O)[C@@H](Cc2c[nH]c3ccccc23)NC1=O [Example 8, cyclo[-D-Asp-Trp-Asp-D-Leu-Leu-D-Trp-]] (cyclo(D[dL]L[dW][dD]W)) | 76 | 100 | 100 | 
11 | CC(C)C[C@@H]1NC(=O)[C@@H](CC(C)C)NC(=O)[C@H](CC(=O)O)NC(=O)[C@@H]2CCN2C(=O)[C@@H](CC(=O)O)NC(=O)[C@@H](Cc2c[nH]c3ccccc23)NC1=O [Example 25, Cyclo[--D--Asp--Azc--Asp--D--Leu--Leu--D--Trp--]] (cyclo([Aze]D[dL]L[dW][dD])) | 30 | 25 | 57 | 
